Columns and labels:
[1] = system: human sirtuin proteins (SIRT1); assay: Sirtuin induction in human epidermal keratinocytes, anti human SIRT1 antibody staining (Test Example 1); assay type: cell-based; conditions: 24 hours
Procedure: Human epidermal keratinocytes (normal human keratinocytes from a person) were cultured and prepared. Following culture of the human keratinocytes in a prolonged culture growth medium (EpiLife-KG2) at 37° C. under 5% CO2, the cells were recovered by trypsin treatment. The cells were then inoculated into a 96-well plate (100 μL per well) and cultured overnight. Following completion of culture, the culture broth from each well was transferred to a culture medium (keratinocyte SFM made by Gibco) to which no hyaluronic acid fragments were added, or to the same culture medium to which a hyaluronic acid fragment (4mer) was added to a final concentration of 0.01 ng/ml, 0.1 ng/ml, 1.0 ng/ml, or 10 ng/ml, and cultured for 24 hours.
After 24 hours had passed, the cells in each well were stained with the anti human SIRT1 antibody. The anti human SIRT1 antibody is an antibody that recognizes and stains human sirtuin proteins. The stained cells were observed under a microscope (made by Nikon), taking photographs of cell morphology and stained images of cells.

[2] = system: sirtuin enzymatic activity (sirt1 enzymatic activity); assay: Sirtuin enzymatic activity in cell solution of human epidermal keratinocytes, CycLex SIRT1/Sir2 Deacetylase Fluorometric Assay Kit (Test Example 2); assay type: cell-based; conditions: 10 ng/ml final concentration; cell crude extract
Procedure: Human epidermal keratinocytes were treated in the same manner as in Test Example 1, except that the final concentration of the hyaluronic acid fragment was 10 ng/ml, the size thereof being four sugar units (4mer), six sugar units (6mer), or 10 sugar units (10mer), while measuring the sirtuin enzymatic activity (sirt1 enzymatic activity) in the cell solution thereof. For purposes of comparison, 10 kDa or 900 kDa hyaluronic acid, and resveratrol, a known sirtuin activator, were likewise tested at 10 ng/ml final concentration. A human sirtuin recombinant protein (recombinant human sirt1) produced through genetic recombination techniques was used as a substance for verification of the measurement system. Sirtuin enzymatic activity in the cell crude extract was measured with the CycLex SIRT1/Sir2 Deacetylase Fluorometric Assay Kit (trade name of CycLex), following the protocol of the kit.

[3] = system: human epidermal keratinocytes; assay: Change in size of human epidermal keratinocytes, image analysis (Test Example 3); assay type: cell-based; conditions: surface area on the image of a single cell; 0.01 ng/ml, 24 hours
Procedure: A test of sirtuin induction in human epidermal keratinocytes was conducted in the same manner as in Test Example 1.
The change in cell size was analyzed using image analysis software (“Image J”). The 5 results in Table 2 are graphed in FIG. 5. The pixel count in the results indicates surface area on the image of a single cell, with higher values considered to indicate larger cells.

[4] = system: activated (phosphorylated) NF-kappaB; assay: NF-kappaB expression in TNF-α treated human large intestine epithelial cells, fluorescent staining (Test Example 9); assay type: cell-based; conditions: TNF-α treatment, 10 ng/ml test substance, 24 hours
Procedure: It was investigated whether the expression of NF-kappaB in human large intestine epithelial cells (HT29 cells) when subjected to TNF-α treatment is affected by treatment with the hyaluronic acid fragment. NF-kappaB is a transcription factor involved in inflammation, tissue destruction, and the like.
DMEM culture medium (made by Wako Pure Chemical Industries, Ltd.) to which TNF-α and the hyaluronic acid fragment were added, and DMEM culture medium from which these were omitted, were prepared, and human large intestine epithelial cells were treated for 24 hours in these culture media. Thereafter, the cells were stained with an antibody that recognizes activated (phosphorylated) NF-kappaB.
The vertical axis of the graph indicates fluorescent intensity. It may be appreciated that, in cells to which four- to eight-unit hyaluronic acid fragments were added, the expression level of NF-kappaB is reduced in statistically significant fashion.

[5] = system: Hepatocyte growth factor expression (mRNA); assay: Induction of hepatocyte growth factor in human epidermal keratinocytes, DNA microarray (Test Example 13); assay type: cell-based; conditions: 10 ng/ml, 24 hours; Cy5, DNA microarray
Procedure: Human epidermal keratinocytes (normal human keratinocytes from a person) were cultured respectively in a culture medium containing 10 ng/ml of four-unit hyaluronic acid fragment (4mer), and a culture medium containing no hyaluronic acid fragments (untreated), for 24 hours. For the culture medium, a serum-free medium for use with normal human keratinocytes, made by DS Pharma Biomedical Co. Ltd. was employed. After culture, the cells were recovered and analyzed with a DNA microarray (DNA chip).

[6] = system: human neural stem cells (neurospheres); assay: Action on human neural stem cells, Nestin/Tubulin double staining (Test Example 7); assay type: cell-based; conditions: 10 ng/ml, 12 days
Procedure: Human neural stem cells (neurospheres) (trade name Gibco Human Neural Stem Cells (H9-Derived) made by Gibco) were cultured in Neurobasal Media (trade name, made by Gibco) culture medium at 37° C. under 5% CO2, and the cells were recovered by trypsin treatment. The cells were then inoculated into a 96-well plate (100 μL per well) and cultured overnight. Following completion of culture, the culture broth from each well was transferred to Neurobasal Media (trade name, made by Gibco) culture medium to which no hyaluronic acid fragments were added, or to the same medium to which hyaluronic acid fragment (L3mer) had been added to a final concentration of 10 ng/ml, and cultured for 12 days
After 12 days had passed, the cells in each well were double-stained with anti human Nestin antibody and anti human Tubulin antibody. Nestin is a protein that is specifically expressed in neural stem cells, and is a neural stem cell marker. The stained cells were observed under a microscope (made by Nikon), taking photographs of cell morphology and stained images of cells.

liver function = assay: Concanavalin A liver damage model, blood GOT and GPT (Test Example 15); assay type: in vivo; conditions: concanavalin A 20 mg/kg caudal vein, fragment oral, after 24 hours, 20-month old female Balb/c mice
Procedure: The effect of action of the hyaluronic acid fragment on the liver of aged […] was investigated. Specifically, 20-month old (aged) female Balb/c mice were administered through the caudal vein with concanavalin A (20 mg/kg of body weight) one time, as a liver damage model. Subsequent to administration of concanavalin A, hyaluronic acid fragment (4mer or L3mer) were administered orally, and the effect thereof was investigated. Impairment of liver function was evaluated after 24 hours, by drawing blood and measuring the GOT and GPT values in the blood.

[7] = system: human neural stem cells (neurospheres); assay: Hydrogen peroxide induced aging of human neural stem cells, microscopy (Test Example 20); assay type: cell-based; conditions: 24 hours
Procedure: It was investigated whether the process, in which human neural stem cells (neurospheres) experienced cellular aging (vacuolar degeneration and hypertrophy) when treated with hydrogen peroxide, is affected by treatment with the hyaluronic acid fragment. Specifically, the following test was performed.
Human neural stem cells (neurospheres) (trade name Gibco Human Neural Stem Cells (H9-Derived) made by Gibco) were cultured in Neurobasal Media (trade name, made by Gibco) culture medium at 37° C. under 5% CO2. Hydrogen peroxide was added to the culture medium to a final concentration of 10 μM to bring about stimulation for a 15-minute period, and the culture broth was then transferred to Neurobasal Media culture medium (made by Gibco) containing no hyaluronic acid fragments; to the same culture medium containing hyaluronic acid fragment (L3mer) in a final concentration of 100 ng/ml; or to the same culture medium containing hyaluronic acid fragment (L3mer) plus TLR4/MD2 added to a final concentration of 10 μg/ml, and cultured for 24 hours.
After 24 hours, the cells were examined with an inverted microscope.

Row | SMILES | Average staining intensity ([1]; 0.01 ng/ml) | Average staining intensity ([1]; 0.1 ng/ml) | Average staining intensity ([1]; 1.0 ng/ml) | Average staining intensity ([1]; 10 ng/ml) | sirtuin enzymatic activity (sirt1 enzymatic activity) compared with negative control [2] | Average pixel count [3] | expression level of NF-kappaB (fluorescent intensity) [4] | Fluorescent intensity, Hepatocyte growth factor expression in keratinocytes (mRNA) [5] | expression of Nestin and Tubulin [6] | process formation (morphology) [6] | impairment of liver function (GOT values in the blood) (liver function) | suppression of cellular aging with TLR4/MD2 added ([7]; 100 ng/ml plus TLR4/MD2 10 μg/ml) | hydrogen peroxide-induced cellular aging (vacuolar degeneration and hypertrophy) ([7]; hydrogen peroxide 10 μM, 100 ng/ml)
1 | CC(=O)N[C@H]1[C@H](O[C@H]2[C@H](O)[C@@H](O)[C@H](O[C@H]3[C@H](O)[C@@H](CO)OC(O)[C@@H]3NC(C)=O)O[C@@H]2C(=O)O)O[C@H](CO)[C@@H](O)[C@@H]1O[C@@H]1O[C@H](C(=O)O)[C@@H](O)[C@H](O)[C@H]1O (stereo partly shown) [4mer, GlcA(-GlcNAc-GlcA)1-GlcNAc] | 6.33 | 6.35 | 6.52 | 6.54 | approximately triple | 124515.9333 | inhibited to the greatest extent | 200.40 |  |  |  |  | 
2 | CC(=O)NC1C(O[C@@H]2OC(C(=O)O)[C@@H](O)C(O)C2O)[C@H](O)C(CO)O[C@H]1O[C@@H]1C(C(=O)O)O[C@@H](OCCCN=[N+]=[N-])C(O)C1O (stereo partly shown) [L3mer] |  |  |  |  |  |  |  |  | expression of both Nestin and Tubulin was confirmed | process formation was confirmed | markedly better with the L3mer than with the 4mer | inhibited by addition of TLR4/MD2 | suppressed
